Experimental data from publication PMC11225630 (Journal of Oral Microbiology, 2024).
Where a SMILES comes first, the peptide text is derived from it.

What was measured:
Assay in all cases: AMC release by intact cells, fluorescence
Assay type in all cases: cell-based
Details in all cases: 20 uM; 50 mM phosphate, 5 mM EDTA, 100 mM NaCl, 37 C, 3 h
[1] = target: DPP4 (Porphyromonas gingivalis, UniProt B2RKU3)
[2] = target: T1, DPP11 (Porphyromonas gingivalis, UniProt B2RID1)
T1 sequence (B2RID1 22-720): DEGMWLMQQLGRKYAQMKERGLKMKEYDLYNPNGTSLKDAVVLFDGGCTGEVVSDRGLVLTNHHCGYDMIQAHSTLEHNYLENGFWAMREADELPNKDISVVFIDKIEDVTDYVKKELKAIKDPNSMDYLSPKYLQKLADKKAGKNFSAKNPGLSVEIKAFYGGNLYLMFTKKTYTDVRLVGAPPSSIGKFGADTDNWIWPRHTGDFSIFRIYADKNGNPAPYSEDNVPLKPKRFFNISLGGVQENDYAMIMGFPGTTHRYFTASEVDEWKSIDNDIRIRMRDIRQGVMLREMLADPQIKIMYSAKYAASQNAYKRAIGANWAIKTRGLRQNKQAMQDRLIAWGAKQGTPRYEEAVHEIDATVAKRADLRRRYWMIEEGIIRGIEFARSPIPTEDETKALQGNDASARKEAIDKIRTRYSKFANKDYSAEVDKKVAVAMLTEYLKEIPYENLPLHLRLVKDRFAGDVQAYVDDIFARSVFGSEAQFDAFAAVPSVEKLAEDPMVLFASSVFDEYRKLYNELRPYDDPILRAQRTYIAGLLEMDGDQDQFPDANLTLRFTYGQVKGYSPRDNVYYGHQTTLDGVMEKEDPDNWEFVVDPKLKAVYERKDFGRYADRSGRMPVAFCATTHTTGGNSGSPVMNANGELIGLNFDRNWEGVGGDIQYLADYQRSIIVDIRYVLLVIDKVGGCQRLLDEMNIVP

[3] = target: T2, DPP5 (Porphyromonas gingivalis, UniProt B2RIT0)
T2 sequence (B2RIT0 25-684): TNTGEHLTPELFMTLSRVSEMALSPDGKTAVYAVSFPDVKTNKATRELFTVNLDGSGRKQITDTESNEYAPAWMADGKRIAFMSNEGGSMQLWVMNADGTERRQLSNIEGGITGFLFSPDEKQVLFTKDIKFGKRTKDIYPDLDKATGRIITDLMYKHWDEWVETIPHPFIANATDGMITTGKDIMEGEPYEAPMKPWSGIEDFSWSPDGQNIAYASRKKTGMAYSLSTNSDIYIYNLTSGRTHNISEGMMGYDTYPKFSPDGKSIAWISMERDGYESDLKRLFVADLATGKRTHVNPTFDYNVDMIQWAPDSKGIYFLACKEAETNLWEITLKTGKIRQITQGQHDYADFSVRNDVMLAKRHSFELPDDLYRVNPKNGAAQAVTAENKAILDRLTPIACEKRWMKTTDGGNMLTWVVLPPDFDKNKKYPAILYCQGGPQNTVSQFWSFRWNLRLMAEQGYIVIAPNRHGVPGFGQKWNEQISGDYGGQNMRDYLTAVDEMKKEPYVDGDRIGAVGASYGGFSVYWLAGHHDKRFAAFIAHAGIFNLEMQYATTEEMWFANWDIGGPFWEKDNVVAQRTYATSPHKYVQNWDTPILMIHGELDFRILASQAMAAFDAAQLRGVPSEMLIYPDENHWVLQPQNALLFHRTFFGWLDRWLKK

## Cc1cc(=O)oc2cc(NC(=O)[C@@H]3CCCN3C(=O)CN)ccc12 [Gly-Pro-MCA] (HELM PEPTIDE1{G.P.[Cc1cc(=O)oc2cc(N[*:1])ccc12]}$$$$V2.0)
[1]
  AMC release by intact cells, fluorescence: Gly-Pro-MCA (substrate of DPP4)

## Cc1cc(=O)oc2cc(NC(=O)[C@H](CC(=O)O)NC(=O)[C@@H](N)CC(C)C)ccc12 [Leu-Asp-MCA] (HELM PEPTIDE1{L.D.[Cc1cc(=O)oc2cc(N[*:1])ccc12]}$$$$V2.0)
[2]
  AMC release by intact cells, fluorescence: Leu-Asp-MCA (substrate of DPP11)

## Cc1cc(=O)oc2cc(NC(=O)[C@H](C)NC(=O)[C@@H](N)CCCCN)ccc12 [Lys-Ala-MCA] (HELM PEPTIDE1{K.A.[Cc1cc(=O)oc2cc(N[*:1])ccc12]}$$$$V2.0)
[3]
  AMC release by intact cells, fluorescence: Lys-Ala-MCA (substrate of DPP5)
